# Source: US3978045A, “N^2 -dansyl-L-arginine derivatives, and the pharmaceutically acceptable acid addition salts thereof” (priority 1973, dated 1976)
# Structures can show the parent of a compound that is named as a salt. Non-standard residues stand in square brackets, D forms with d. Residues, ends and D or L forms follow the SMILES beside them. ξ: configuration not given here. *: point of attachment. Dansyl = CN(C)c1cccc2c(S(=O)(=O)*)cccc12; Pyrrolidide = C1CCN(*)C1; ξP = O=C(O)C1CCCN1; Sar = CNCC(=O)O
# Target: T1, thrombin (Bos taurus, UniProt P00735)
# T1 construct: mature alpha-thrombin (light plus heavy chain) cut from prothrombin
# Experiment: Fibrinogen coagulation time (thrombin-induced clotting of fibrinogen)
# Type: biochemical
# Details: bovine fibrinogen, borate saline buffer pH 7.4, thrombin 0.1 ml of 5 units/ml, 25°C; control coagulation time 50-55 seconds; read-out: Concentration required to prolong the coagulation time by a factor of 2
# Procedure: The antithrombotic activities of the N^2 -dansyl-L-arginine derivatives of this invention were compared with those of a known antithrombotic agent, (N^2 -(p-tolylsulfonyl)-L-arginine methyl ester). by determining the fibrinogen coagulation time. The measurement of the fibrinogen coagulation time was conducted as follows:
# Immediately after mixing, the reaction mixture was transferred from the ice bath to a bath thermostated at 25°C. Coagulation times were taken as the period between the time of transference to the 25°C bath and the time of the first appearance of fibrin threads.
# The term "concentration required to prolong the coagulation time by a factor of two" is the concentration of an active ingredient required to prolong the normal coagulation time 50-55 seconds to 100-110 seconds.
row,IC (2-fold clotting time) [µM],SMILES
1,22,"COC(=O)CCNC(=O)[C@H](CCCNC(=N)N)NS(=O)(=O)c1cccc2c(N(C)C)cccc12 [Sample 32, N^2-dansyl-N-(2-methoxycarbonylethyl)-L-argininamide]"
2,5,"CCOC(=O)CCNC(=O)[C@H](CCCNC(=N)N)NS(=O)(=O)c1cccc2c(N(C)C)cccc12 [Sample 33, N^2-dansyl-N-(2-ethoxycarbonylethyl)-L-argininamide diacetate]"
3,500,CCOC(=O)CCCNC(=O)[C@H](CCCNC(=N)N)NS(=O)(=O)c1cccc2c(N(C)C)cccc12 [Sample 34]
4,10,"C=CCNC(=O)[C@H](CCCNC(=N)N)NS(=O)(=O)c1cccc2c(N(C)C)cccc12 [Sample 35, N^2 -dansyl-N-allyl-L-argininamide]"
5,200,CN(C)c1cccc2c(S(=O)(=O)N[C@@H](CCCNC(=N)N)C(=O)NC3CC3)cccc12 [Sample 36]
6,40,"CN(C)c1cccc2c(S(=O)(=O)N[C@@H](CCCNC(=N)N)C(=O)NCC3CCCCC3)cccc12 [Sample 37, N^2 -dansyl-N-cyclohexylmethyl-L-argininamide]"
7,100,CN(C)c1cccc2c(S(=O)(=O)N[C@@H](CCCNC(=N)N)C(=O)Nc3ccccc3)cccc12 [Sample 38]
8,50,CN(C)c1cccc2c(S(=O)(=O)N[C@@H](CCCNC(=N)N)C(=O)NCc3ccccc3)cccc12 [Sample 39]
9,150,"CN(C)c1cccc2c(S(=O)(=O)N[C@@H](CCCNC(=N)N)C(=O)NCCc3ccccc3)cccc12 [Sample 40, N^2 -dansyl-N-(β-phenylethyl)-L-argininamide dihydrate]"
10,27,CN(C)c1cccc2c(S(=O)(=O)N[C@@H](CCCNC(=N)N)C(=O)NCCCc3ccccc3)cccc12 [Sample 41]
11,> 500,"CN(C)c1cccc2c(S(=O)(=O)N[C@@H](CCCNC(=N)N)C(=O)NCCC(=O)Nc3ccccc3)cccc12 [Sample 42, N^2-dansyl-N-(2-phenylcarbamoylethyl)-L-argininamide diacetate]"
12,370,CN(C)c1cccc2c(S(=O)(=O)N[C@@H](CCCNC(=N)N)C(=O)NCC(=O)N3CCCC3)cccc12 [Sample 43] (Dansyl-Arg-Gly-Pyrrolidide)
13,55,"CCN(CC)C(=O)[C@H](CCCNC(=N)N)NS(=O)(=O)c1cccc2c(N(C)C)cccc12 [Sample 45, N^2 -dansyl-N,N-diethyl-L-argininamide diacetate]"
14,39,CCCCN(CCCC)C(=O)[C@H](CCCNC(=N)N)NS(=O)(=O)c1cccc2c(N(C)C)cccc12 [Sample 46]
15,2,"CCCCN(C)C(=O)[C@H](CCCNC(=N)N)NS(=O)(=O)c1cccc2c(N(C)C)cccc12 [Sample 47, N^2 -dansyl-N-(n-butyl)-N-methyl-L-argininamide diacetate]"
16,50,CCCCN(CC)C(=O)[C@H](CCCNC(=N)N)NS(=O)(=O)c1cccc2c(N(C)C)cccc12 [Sample 48]
17,59,CCOC(=O)CN(C)C(=O)[C@H](CCCNC(=N)N)NS(=O)(=O)c1cccc2c(N(C)C)cccc12 [Sample 49] (Dansyl-Arg-[Sar]-OEt)
18,2.5,"COC(=O)CCN(C)C(=O)[C@H](CCCNC(=N)N)NS(=O)(=O)c1cccc2c(N(C)C)cccc12 [Sample 50, N^2-dansyl-N-methyl-N-(2-methoxycarbonylethyl)-L-argininamide]"
19,15,CCOC(=O)CCN(C)C(=O)[C@H](CCCNC(=N)N)NS(=O)(=O)c1cccc2c(N(C)C)cccc12 [Sample 51]
20,7,"CN(Cc1ccccc1)C(=O)[C@H](CCCNC(=N)N)NS(=O)(=O)c1cccc2c(N(C)C)cccc12 [Sample 52, N^2 -dansyl-N-methyl-N-benzyl-L-argininamide]"
21,3.3,"CN(C)c1cccc2c(S(=O)(=O)N[C@@H](CCCNC(=N)N)C(=O)N3CCCC3)cccc12 [Sample 53, 1-(N^2-dansyl-L-arginyl)pyrrolidine diacetate]"
22,780,CCOC(=O)C1CCCN1C(=O)[C@H](CCCNC(=N)N)NS(=O)(=O)c1cccc2c(N(C)C)cccc12 (stereo partly shown) [Sample 54] (Dansyl-Arg-[ξP]-OEt)
23,0.9,"CN(C)c1cccc2c(S(=O)(=O)N[C@@H](CCCNC(=N)N)C(=O)N3CCCCC3)cccc12 [Sample 55, 1-(N^2-dansyl-L-arginyl)piperidine diacetate]"
24,1.3,"CC1CCCCN1C(=O)[C@H](CCCNC(=N)N)NS(=O)(=O)c1cccc2c(N(C)C)cccc12 (stereo partly drawn) [Sample 56, 2-methyl-1-(N^2-dansyl-L-arginyl)piperidine]"
25,6.5,"CC1CCCN(C(=O)[C@H](CCCNC(=N)N)NS(=O)(=O)c2cccc3c(N(C)C)cccc23)C1 (stereo partly drawn) [Sample 57, 3-methyl-1-(N^2-dansyl-L-arginyl)piperidine]"

# More lines, now with the values behind:
row,SMILES,IC (2-fold clotting time) [µM]
1,"CCOC(=O)[C@H](CCCNC(=N)N)NS(=O)(=O)c1cccc2c(N(C)C)cccc12 [Sample 2, N^2 -dansyl-L-arginine ethyl ester dihydrochloride]",8
2,"CCCOC(=O)[C@H](CCCNC(=N)N)NS(=O)(=O)c1cccc2c(N(C)C)cccc12 [Sample 3, N^2 -dansyl-L-arginine n-propyl ester]",2
3,"CC(C)OC(=O)[C@H](CCCNC(=N)N)NS(=O)(=O)c1cccc2c(N(C)C)cccc12 [Sample 4, N^2 -dansyl-L-arginine isopropyl ester dihydrochloride]",30
4,"CC(C)COC(=O)[C@H](CCCNC(=N)N)NS(=O)(=O)c1cccc2c(N(C)C)cccc12 [Sample 6, N^2 -dansyl-L-arginineisobutyl ester di(p-toluene sulfonate)]",110
5,"CC=CCOC(=O)[C@H](CCCNC(=N)N)NS(=O)(=O)c1cccc2c(N(C)C)cccc12 [Sample 12, N^2 -dansyl-L-arginine crotyl ester]",2
6,"C#CCCOC(=O)[C@H](CCCNC(=N)N)NS(=O)(=O)c1cccc2c(N(C)C)cccc12 [Sample 13, N^2-dansyl-L-arginine 3-butynyl ester]",4
7,CN(C)c1cccc2c(S(=O)(=O)N[C@@H](CCCNC(=N)N)C(=O)OC3CCCCC3)cccc12 [Sample 14],60
8,CN(C)c1cccc2c(S(=O)(=O)N[C@@H](CCCNC(=N)N)C(=O)OCC3CCCO3)cccc12 (stereo partly shown) [Sample 15],20
9,"COCCOC(=O)[C@H](CCCNC(=N)N)NS(=O)(=O)c1cccc2c(N(C)C)cccc12 [Sample 16, N^2-dansyl-L-arginine 2-methoxyethyl ester]",5
10,"CN(C)c1cccc2c(S(=O)(=O)N[C@@H](CCCNC(=N)N)C(=O)OCCCCCl)cccc12 [Sample 18, N^2-dansyl-L-arginine 4-chlorobutyl ester]",7
11,CCC(COC(=O)[C@H](CCCNC(=N)N)NS(=O)(=O)c1cccc2c(N(C)C)cccc12)[N+](=O)[O-] (stereo partly shown) [Sample 19],200
12,"CCNC(=O)[C@H](CCCNC(=N)N)NS(=O)(=O)c1cccc2c(N(C)C)cccc12 [Sample 20, N^2 -dansyl-N-ethyl-L-argininamide monohydrate]",100
13,"CCCNC(=O)[C@H](CCCNC(=N)N)NS(=O)(=O)c1cccc2c(N(C)C)cccc12 [Sample 21, N^2 -dansyl-N-(n-propyl)-L-argininamide monohydrate]",15
14,"CCCCNC(=O)[C@H](CCCNC(=N)N)NS(=O)(=O)c1cccc2c(N(C)C)cccc12 [Sample 22, N^2 -dansyl-N-(n-butyl)-L-argininamide monohydrate]",25
15,CCCCCNC(=O)[C@H](CCCNC(=N)N)NS(=O)(=O)c1cccc2c(N(C)C)cccc12 [Sample 23],125
16,"CCCCCCNC(=O)[C@H](CCCNC(=N)N)NS(=O)(=O)c1cccc2c(N(C)C)cccc12 [Sample 24, N^2 -dansyl-N-(n-hexyl)-L-argininamide monohydrate]",20
17,"CCCCCCCNC(=O)[C@H](CCCNC(=N)N)NS(=O)(=O)c1cccc2c(N(C)C)cccc12 [Sample 25, N^2 -dansyl-N-(n-heptyl)-L-argininamide]",100
18,"CC(C)NC(=O)[C@H](CCCNC(=N)N)NS(=O)(=O)c1cccc2c(N(C)C)cccc12 [Sample 26, N^2 -dansyl-N-isopropyl-L-argininamide]",1000
19,"CC(C)CNC(=O)[C@H](CCCNC(=N)N)NS(=O)(=O)c1cccc2c(N(C)C)cccc12 [Sample 27, N^2 -dansyl-N-isobutyl-L-argininamide]",100
20,"COCCNC(=O)[C@H](CCCNC(=N)N)NS(=O)(=O)c1cccc2c(N(C)C)cccc12 [Sample 28, N^2-dansyl-N-(2-methoxyethyl)-L-argininamide dihydrate]",4
21,COCCCNC(=O)[C@H](CCCNC(=N)N)NS(=O)(=O)c1cccc2c(N(C)C)cccc12 [Sample 29],65
22,"CCOCCNC(=O)[C@H](CCCNC(=N)N)NS(=O)(=O)c1cccc2c(N(C)C)cccc12 [Sample 30, N^2-dansyl-N-(2-ethoxyethyl)-L-argininamide]",5
23,"CCOC(=O)CNC(=O)[C@H](CCCNC(=N)N)NS(=O)(=O)c1cccc2c(N(C)C)cccc12 [Sample 31, N^2-dansyl-N-(2-ethoxycarbonylmethyl)-L-argininamide diacetate] (Dansyl-Arg-Gly-OEt)",160
24,"CC1CCN(C(=O)[C@H](CCCNC(=N)N)NS(=O)(=O)c2cccc3c(N(C)C)cccc23)CC1 [Sample 58, 4-methyl-1-(N^2-dansyl-L-arginyl)piperidine diacetate]",0.3
